Data on 3 compounds can be found in ChEMBL document CHEMBL1152560, “Substituted 2-arylbenzothiazoles as kinase inhibitors: hit-to-lead optimization” (Bioorg Med Chem, 2009).

Experiment [1] has as its target T1, cGMP-dependent protein kinase 2 (Homo sapiens) (UniProt Q13237).
T1 sequence (whole entry): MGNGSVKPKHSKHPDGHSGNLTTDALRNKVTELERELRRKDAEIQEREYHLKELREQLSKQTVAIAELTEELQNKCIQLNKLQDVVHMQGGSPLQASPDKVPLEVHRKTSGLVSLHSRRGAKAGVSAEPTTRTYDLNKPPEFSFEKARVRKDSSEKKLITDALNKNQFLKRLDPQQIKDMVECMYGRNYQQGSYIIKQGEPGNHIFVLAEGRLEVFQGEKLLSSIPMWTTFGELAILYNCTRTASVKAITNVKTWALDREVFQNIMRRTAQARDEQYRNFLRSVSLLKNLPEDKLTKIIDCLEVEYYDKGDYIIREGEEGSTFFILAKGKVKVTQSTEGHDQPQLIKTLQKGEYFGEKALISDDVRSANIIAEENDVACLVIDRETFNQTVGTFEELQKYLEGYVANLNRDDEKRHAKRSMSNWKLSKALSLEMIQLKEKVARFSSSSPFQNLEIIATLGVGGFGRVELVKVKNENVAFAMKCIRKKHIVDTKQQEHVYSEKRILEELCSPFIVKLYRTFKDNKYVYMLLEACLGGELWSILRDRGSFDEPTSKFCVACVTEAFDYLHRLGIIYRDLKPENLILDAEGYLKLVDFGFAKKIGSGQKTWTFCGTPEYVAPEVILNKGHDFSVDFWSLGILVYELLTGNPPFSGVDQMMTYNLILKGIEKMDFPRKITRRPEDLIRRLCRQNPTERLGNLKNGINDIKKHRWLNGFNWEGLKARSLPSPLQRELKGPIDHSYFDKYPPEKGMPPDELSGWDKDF
Put plainly: Residual activity of PRKG2 at 0.1 uM by microplate scintillation counting.

For experiment [2], the target named is Tyrosine-protein kinase Fes/Fps (Homo sapiens) (UniProt P07332). Put plainly: Residual activity of FES at 10 uM by microplate scintillation counting.
Experiment [3] deals with T2, Serine/threonine-protein kinase 3 (Homo sapiens) (UniProt Q13188).
T2 sequence (whole entry): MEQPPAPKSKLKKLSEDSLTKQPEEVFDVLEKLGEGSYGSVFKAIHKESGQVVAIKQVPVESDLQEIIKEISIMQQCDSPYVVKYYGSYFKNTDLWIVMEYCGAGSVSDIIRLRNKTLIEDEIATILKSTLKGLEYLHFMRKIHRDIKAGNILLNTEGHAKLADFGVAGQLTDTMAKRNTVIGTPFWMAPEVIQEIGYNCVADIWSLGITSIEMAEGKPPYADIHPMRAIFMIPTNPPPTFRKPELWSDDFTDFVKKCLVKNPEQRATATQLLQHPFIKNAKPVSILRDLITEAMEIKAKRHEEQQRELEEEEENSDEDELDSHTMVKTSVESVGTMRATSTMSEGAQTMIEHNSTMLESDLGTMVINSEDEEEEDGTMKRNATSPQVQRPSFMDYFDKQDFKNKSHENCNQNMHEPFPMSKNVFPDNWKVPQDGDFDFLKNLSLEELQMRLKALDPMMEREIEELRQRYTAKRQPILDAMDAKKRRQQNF
The experiment is described as follows: Residual activity of MST2 at 0.1 uM by microplate scintillation counting.

For experiment [4], the target named is T3, cGMP-dependent protein kinase 1 (Homo sapiens) (UniProt Q13976).
T3 sequence (whole entry): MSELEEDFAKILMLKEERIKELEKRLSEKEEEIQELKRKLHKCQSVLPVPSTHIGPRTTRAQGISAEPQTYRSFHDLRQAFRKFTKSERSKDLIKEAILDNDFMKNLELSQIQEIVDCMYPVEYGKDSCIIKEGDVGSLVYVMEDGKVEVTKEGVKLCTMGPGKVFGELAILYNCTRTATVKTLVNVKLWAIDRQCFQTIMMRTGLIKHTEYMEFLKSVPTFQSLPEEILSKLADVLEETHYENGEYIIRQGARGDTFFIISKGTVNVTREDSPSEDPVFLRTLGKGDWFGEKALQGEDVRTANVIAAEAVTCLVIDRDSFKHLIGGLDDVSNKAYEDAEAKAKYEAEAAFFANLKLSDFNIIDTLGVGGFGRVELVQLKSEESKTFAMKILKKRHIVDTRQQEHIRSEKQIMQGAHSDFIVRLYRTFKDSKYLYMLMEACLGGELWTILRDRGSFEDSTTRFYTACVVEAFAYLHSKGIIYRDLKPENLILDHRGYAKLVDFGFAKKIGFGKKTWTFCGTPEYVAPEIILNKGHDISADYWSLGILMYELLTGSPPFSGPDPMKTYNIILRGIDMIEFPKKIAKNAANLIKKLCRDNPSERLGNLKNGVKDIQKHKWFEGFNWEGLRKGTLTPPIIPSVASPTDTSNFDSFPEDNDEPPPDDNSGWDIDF
The experiment is described as follows: Residual activity of PRKG1 at 0.1 uM by microplate scintillation counting.

The target in experiment [5] is Cyclin-dependent kinase 5/CDK5 activator 1 (Homo sapiens) (UniProt Q00535+Q15078). Put plainly: Residual activity of CDK5/p25NCK at 10 uM by microplate scintillation counting. Type of experiment: protein-complex assay.
Experiment [6] has as its target Casein kinase I isoform gamma-2 (Homo sapiens) (UniProt P78368). The experiment is described as follows: Residual activity of CK1gamma2 at 1 uM by microplate scintillation counting.
The target of experiment [7] is Rho-associated protein kinase 2 (Homo sapiens) (UniProt O75116). The experiment is described as follows: Residual activity of ROCK2 at 1 uM by microplate scintillation counting.
Rho-associated protein kinase 2 (Homo sapiens), sequence (O75116 whole entry, looked up): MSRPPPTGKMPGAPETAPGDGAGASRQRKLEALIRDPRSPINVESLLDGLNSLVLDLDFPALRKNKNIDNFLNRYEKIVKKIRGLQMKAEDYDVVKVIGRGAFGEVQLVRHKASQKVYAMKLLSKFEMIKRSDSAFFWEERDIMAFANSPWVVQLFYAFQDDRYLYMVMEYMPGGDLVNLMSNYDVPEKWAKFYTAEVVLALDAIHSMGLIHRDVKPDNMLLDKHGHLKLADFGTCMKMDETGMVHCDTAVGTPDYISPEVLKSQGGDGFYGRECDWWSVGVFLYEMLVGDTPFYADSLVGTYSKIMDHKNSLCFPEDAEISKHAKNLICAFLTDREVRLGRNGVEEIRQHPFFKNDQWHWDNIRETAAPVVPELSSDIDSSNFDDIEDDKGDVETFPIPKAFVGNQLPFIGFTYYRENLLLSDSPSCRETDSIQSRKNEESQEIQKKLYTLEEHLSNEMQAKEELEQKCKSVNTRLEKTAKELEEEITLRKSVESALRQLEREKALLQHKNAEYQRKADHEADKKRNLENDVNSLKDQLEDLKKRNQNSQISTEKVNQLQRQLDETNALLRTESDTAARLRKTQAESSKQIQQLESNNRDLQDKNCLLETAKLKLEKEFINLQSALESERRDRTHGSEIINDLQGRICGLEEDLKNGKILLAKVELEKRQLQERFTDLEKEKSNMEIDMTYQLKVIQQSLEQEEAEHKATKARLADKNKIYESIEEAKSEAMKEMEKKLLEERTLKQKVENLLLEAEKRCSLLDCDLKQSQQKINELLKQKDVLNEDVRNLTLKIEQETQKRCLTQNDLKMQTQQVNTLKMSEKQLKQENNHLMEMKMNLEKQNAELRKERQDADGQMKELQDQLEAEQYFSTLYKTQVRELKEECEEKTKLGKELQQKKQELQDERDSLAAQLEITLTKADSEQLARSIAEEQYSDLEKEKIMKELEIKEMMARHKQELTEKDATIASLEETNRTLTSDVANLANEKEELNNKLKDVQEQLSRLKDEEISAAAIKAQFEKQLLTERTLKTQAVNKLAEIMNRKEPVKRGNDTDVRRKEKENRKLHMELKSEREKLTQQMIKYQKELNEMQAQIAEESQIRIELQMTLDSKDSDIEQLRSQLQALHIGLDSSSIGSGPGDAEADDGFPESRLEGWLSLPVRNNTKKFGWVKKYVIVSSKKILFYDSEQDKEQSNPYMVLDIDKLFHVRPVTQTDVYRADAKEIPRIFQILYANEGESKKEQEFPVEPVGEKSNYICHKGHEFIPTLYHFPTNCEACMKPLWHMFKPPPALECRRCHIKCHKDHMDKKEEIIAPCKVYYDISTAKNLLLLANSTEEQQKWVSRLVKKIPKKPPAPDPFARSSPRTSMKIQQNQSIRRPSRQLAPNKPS

Casein kinase I isoform gamma-2 (Homo sapiens), sequence (P78368 whole entry, looked up, canonical isoform): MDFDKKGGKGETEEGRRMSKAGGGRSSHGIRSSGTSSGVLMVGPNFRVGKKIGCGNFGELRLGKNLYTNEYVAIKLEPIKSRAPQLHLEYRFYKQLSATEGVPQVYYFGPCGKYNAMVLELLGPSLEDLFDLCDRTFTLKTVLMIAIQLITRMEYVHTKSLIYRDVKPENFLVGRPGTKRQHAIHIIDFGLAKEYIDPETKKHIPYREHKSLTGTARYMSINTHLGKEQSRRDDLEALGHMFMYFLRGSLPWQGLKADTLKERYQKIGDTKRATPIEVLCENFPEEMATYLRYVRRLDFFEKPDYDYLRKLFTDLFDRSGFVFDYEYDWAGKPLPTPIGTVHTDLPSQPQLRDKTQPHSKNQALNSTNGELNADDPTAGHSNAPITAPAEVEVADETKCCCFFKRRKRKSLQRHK
Cyclin-dependent kinase 5/CDK5 activator 1 (Homo sapiens), sequence (Q00535 whole entry, canonical isoform): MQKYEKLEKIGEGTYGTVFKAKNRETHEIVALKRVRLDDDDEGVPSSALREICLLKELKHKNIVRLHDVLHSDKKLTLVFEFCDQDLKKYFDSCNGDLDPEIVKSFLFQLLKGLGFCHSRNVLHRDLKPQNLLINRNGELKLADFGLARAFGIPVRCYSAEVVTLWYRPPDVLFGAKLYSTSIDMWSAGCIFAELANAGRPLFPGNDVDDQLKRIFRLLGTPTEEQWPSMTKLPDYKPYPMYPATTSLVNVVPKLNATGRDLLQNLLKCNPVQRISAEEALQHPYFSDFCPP
Cyclin-dependent kinase 5/CDK5 activator 1 (Homo sapiens), sequence (Q15078 99-307 partner limits assumed): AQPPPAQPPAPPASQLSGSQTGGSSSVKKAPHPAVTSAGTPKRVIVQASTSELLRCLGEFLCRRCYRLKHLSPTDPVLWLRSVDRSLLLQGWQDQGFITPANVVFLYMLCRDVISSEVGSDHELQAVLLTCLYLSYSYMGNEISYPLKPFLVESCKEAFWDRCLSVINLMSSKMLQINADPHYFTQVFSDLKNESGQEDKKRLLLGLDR
Tyrosine-protein kinase Fes/Fps (Homo sapiens), sequence (P07332 whole entry): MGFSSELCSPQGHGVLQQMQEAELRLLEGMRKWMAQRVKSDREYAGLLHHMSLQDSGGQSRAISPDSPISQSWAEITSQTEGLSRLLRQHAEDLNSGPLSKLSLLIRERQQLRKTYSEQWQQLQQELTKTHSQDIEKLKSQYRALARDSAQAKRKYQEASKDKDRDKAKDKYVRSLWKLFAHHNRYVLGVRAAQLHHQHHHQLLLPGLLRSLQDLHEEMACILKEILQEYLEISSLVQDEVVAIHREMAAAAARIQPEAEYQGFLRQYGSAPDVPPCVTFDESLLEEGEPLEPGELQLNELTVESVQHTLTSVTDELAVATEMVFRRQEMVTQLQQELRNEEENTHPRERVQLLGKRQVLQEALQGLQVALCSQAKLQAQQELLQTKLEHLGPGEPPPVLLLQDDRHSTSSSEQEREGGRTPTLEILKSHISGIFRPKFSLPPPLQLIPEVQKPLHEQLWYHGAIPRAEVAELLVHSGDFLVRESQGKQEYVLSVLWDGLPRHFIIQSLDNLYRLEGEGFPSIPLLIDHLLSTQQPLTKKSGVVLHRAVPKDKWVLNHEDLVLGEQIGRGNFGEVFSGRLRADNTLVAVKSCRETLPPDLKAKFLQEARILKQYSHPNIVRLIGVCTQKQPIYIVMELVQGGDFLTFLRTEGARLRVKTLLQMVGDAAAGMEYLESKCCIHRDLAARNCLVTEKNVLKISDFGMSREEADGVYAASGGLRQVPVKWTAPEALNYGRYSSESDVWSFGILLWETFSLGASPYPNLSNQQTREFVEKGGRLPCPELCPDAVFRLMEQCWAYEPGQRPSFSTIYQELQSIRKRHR

With `COc1cc2c(Oc3ccc(-c4nc5ccccc5s4)cc3)ncnc2cc1OCCCN1CCCC1`, the residual activity stood at 84% in experiment [1]; 208% in experiment [2]; 82% in experiment [3]; 90% in experiment [4]; 117% in experiment [5]; 107% in experiment [6]. The residual activity in experiment [7] was found to be 93%.

With `COc1cc2c(Oc3ccc(-c4nc5ccccc5s4)cc3F)ncnc2cc1OCCCN1CCN(C)CC1`, the residual activity in experiment [1] was 86%; in experiment [2] it was 112%; in experiment [3] it was 92%; in experiment [4] it was 84%; in experiment [5] it was 116%; in experiment [6], 100%. Besides, the residual activity in experiment [7] was 93%.

As to `COc1cc2c(Oc3ccc(-c4nc5ccccc5s4)cc3)ncnc2cc1OCCCN1CCN(C)CC1`, the residual activity came to 87% in experiment [1]; 153% in experiment [2]; 90% in experiment [3]; 97% in experiment [4]; 112% in experiment [5]; 98% in experiment [6]. Besides, the residual activity in experiment [7] stood at 101%.
